How the values were obtained:
histamine H2 receptor = biological target: T1, histamine H2 receptor (Cavia porcellus, UniProt P47747); assay: Measurement of histamine H2 receptor antagonizing activity (isolated right atrium, histamine dose-response of heart beat); parameters: species or system Hartley; conditions: isolated guinea pig right atrium; test compound 1×10^-5 M; negative logarithm of molar concentration required to double the histamine concentration; Van Rossum method
T1 construct: histamine-induced chronotropic response, pA2
T1 sequence (P47747 whole entry): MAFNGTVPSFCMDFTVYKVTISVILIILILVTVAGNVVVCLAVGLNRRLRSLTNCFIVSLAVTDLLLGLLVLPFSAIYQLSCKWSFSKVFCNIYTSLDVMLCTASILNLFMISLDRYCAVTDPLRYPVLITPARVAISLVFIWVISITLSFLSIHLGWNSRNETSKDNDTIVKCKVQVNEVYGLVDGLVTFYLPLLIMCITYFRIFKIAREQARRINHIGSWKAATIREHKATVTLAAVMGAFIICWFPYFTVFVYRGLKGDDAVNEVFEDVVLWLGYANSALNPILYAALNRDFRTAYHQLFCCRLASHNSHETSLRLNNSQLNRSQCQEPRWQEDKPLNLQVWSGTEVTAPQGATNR
Description: (1) Measurement of histamine H2 receptor antagonizing activity
A guinea pig, Hartley, (male 400-550 g) was struck at the head to let out blood, and the heart was enucleated. The right atrium was separated in a Tyrod solution saturated with oxygen, and a silk thread was attached to its both ends. Using the silk threads at both ends, the atrium was suspended under a tension of 700 mg in a Magnus tube (25 ml) containing a Tyrod solution maintained at 36° C. through which mixture of 95% of O2 and 5% of CO2 was passed. The contracting motion of the atrium was recorded by a force-displacement transducer, and the number of heart beats was calculated.
Histamine (used in the form of diphosphate; the same hereinbelow) was cumulatively added to the Magnus tube in a concentration of 1×10^-8 M to 1×10^-4 M in such an amount that the logarithm of the amount provides an equal interval of 1/2, until a maximum increase in heart beat was obtained. Thus, the dose-response curve of histamine was obtained. The inside of the Magnus tube was washed several times with a Tyrod solution, and the atrium was stabilized for 1 hour. Then, the above procedure was repeated to obtain the dose-response curve of histamine again. The inside of the Magnus tube was washed several times, and the tissues were stabilized for 50 minutes. Then, a test compound (1×10^-5 M) was added to the Magnus tube, and after 20 minutes, the dose-response curve of histamine in the presence of the test compound was obtained.
The PA2 value (the negative logarithm of the molar concentration of the test compound required to double the concentration of histamine in the Magnus tube required to induce a certain reaction) was calculated from the dose-response curve of histamine obtained in the second operation and the dose-response curve of histamine in the presence of the test compound in accordance with the method of J. M. Van Rossum (Arch. int. Pharmacodyn., 143, 299, 1963).

in vivo = conditions: mouse, oral, 5% Tween 80 suspension, male ddY mice 19-22 g, Litchfield-Wilcoxon method

PA2 (histamine H2 receptor)	Structure (SMILES)	LD50 at 72 h (in vivo) [mg/kg]
6.49	CCC(c1cccc(OCCCNC=O)c1)N1CCCC1 (centres unmarked) [B]	–
6.50	O=CNCCCOc1cccc(CN2CCCCC2)c1 [C, N-[3-[3-(1-Piperidinylmethyl)phenoxy]propyl]formamide]	–
6.14	CC(c1cccc(OCCCNC=O)c1)N1CCCCCC1 (centres unmarked) [D, N-[3-[3-(1-(1-Perhydroazepinyl)ethyl]phenoxy]propyl]formamide]	–
5.99	CC(c1cccc(OCCCNC=O)c1)N1CCC(O)C1 (centres unmarked) [E]	–
6.47	CCC(c1cccc(OCCCNC(C)=O)c1)N1CCCC1 (centres unmarked) [G, N-[3-[3-[1-(1-Pyrrolidinyl)propyl]phenoxy]propyl]acetamide]	–
6.52	CC(=O)NCCCOc1cccc(CN2CCCCC2)c1 [H, N-[3-[3-(1-Piperidinylmethyl)phenoxy]propyl]acetamide]	–
5.97	CC(=O)NCCCOc1cccc(C(C)N2CCCCC2)c1 (centres unmarked) [I, N-[3-[3-[1-(1-Piperidinyl)ethyl]phenoxy]propyl]acetamide]	–
6.04	CCC(=O)NCCCOc1cccc(C(C)N2CCCC2)c1 (centres unmarked) [J, N-[3-[3-[1-(1-Pyrrolidinyl)ethyl]phenoxy]propyl]propionamide]	–
5.83	CC(c1cccc(OCCCNC(=O)CO)c1)N1CCCC1 (centres unmarked) [K, N-[3-[3-[1-(1-Pyrrolidinyl)ethyl]phenoxy]propyl]hydroxyacetamide]	–
6.79	O=C(CO)NCCCOc1cccc(CN2CCCCC2)c1 [L, N-[3-[3-(1-Piperidinylmethyl)phenoxy]propyl]hydroxyacetamide]	–
6.29	O=C(CO)NCCCOc1cccc(CN2CCCCCC2)c1 [M, N-[3-[3-(1-Perhydroazepinylmethyl)phenoxy]propyl]hydroxyacetamide]	–
6.26	CC(c1cccc(OCCCNC(=O)CCN)c1)N1CCCC1 (centres unmarked) [N, N-(3-Aminopropionyl)-3-[3-[1-(1-pyrrolidinyl)ethyl]phenoxy]propylamine]	–
6.62	COCC(=O)NCCCOc1cccc(CN2CCCCC2)c1 [O, N-[3-[3-(1-Piperidinylmethyl)phenoxy]propyl]methoxyacetamide]	–
6.77	CCC(=O)OCC(=O)NCCCOc1cccc(CN2CCCCC2)c1 [S, N-[3-[3-(1-Piperidinylmethyl)phenoxy]propyl]propionyloxyacetamide]	–
6.74	O=C(COC(=O)c1ccccc1)NCCCOc1cccc(CN2CCCCC2)c1 [T, N-[3-[3-(1-Piperidinylmethyl)phenoxy]propyl]benzoyloxyacetamide]	–
6.80	O=C(COC(=O)c1ccc(Cl)c(Cl)c1)NCCCOc1cccc(CN2CCCCCC2)c1 [U, N-(3,4-Dichlorobenzoyloxyacetyl)-3-[3-(1-perhydroazepinylmethyl)phenoxy]propylamine]	–

Structure (SMILES)	PA2 (histamine H2 receptor)	LD50 at 72 h (in vivo) [mg/kg]
CC(c1cccc(OCCCNC=O)c1)N1CCCC1 (centres unmarked) [A, N-[3-[3-[1-(1-Pyrrolidinyl)ethyl]phenoxy]propyl]formamide]	6.12	2500
CC(=O)NCCCOc1cccc(C(C)N2CCCC2)c1 (centres unmarked) [F, N-[3-[3-[1-(1-Pyrrolidinyl)ethyl]phenoxy]propyl]acetamide]	6.16	2100
CC(=O)OCC(=O)NCCCOc1cccc(C(C)N2CCCC2)c1 (centres unmarked) [P, N-[3-[3-[1-(1-Pyrrolidinyl)ethyl]phenoxy]propyl]acetoxyacetamide]	6.11	–
CC(=O)OCC(=O)NCCCOc1cccc(CN2CCCCC2)c1 [Q, N-[3-[3-(1-Piperidinylmethyl)phenoxy]propyl]acetoxyacetamide]	7.10	–
CC(=O)OCC(=O)NCCCOc1cccc(CN2CCCCCC2)c1 [R, N-[3-[3-(1-Perhydroazepinylmethyl)phenoxy]propyl]acetoxyacetamide]	6.28	–

Source: patent US4293557A, “Antiulcer phenoxypropylamine derivatives” (Teikoku Hormone Mfg. Co., Ltd., priority 1979, dated 1981)
